Assay results published in patent US11708348B2, “Protease inhibitors for treatment of coronavirus infections” (The Scripps Research Institute, priority 2021, dated 2023).
Structures can show the parent of a compound that is named as a salt. Where two headings read alike, the source gives them in different places.

Tested on: SARS-CoV-2 strain USA-WA1/2020
Test: microbe, parasite or virus in culture
Assay type: cell-based
Conditions: read-out: EC50, uM (Hela)
[1] = Severe acute respiratory syndrome coronavirus 2, HeLa-ACE2, 24 h, HeLa-ACE2 cells, SARS-CoV-2 infection, 24 h
[2] = Severe acute respiratory syndrome coronavirus 2, HeLa-ACE2, 24 h, HeLa-ACE2 cells, SARS-CoV-2 infection, 24 h, class symbols
[3] = HeLa-ACE2 cells, SARS-CoV-2 infection, 24 h, class symbols

SMILES	EC50 [2]	further results
CC(C)C[C@H](NC(=O)C(=O)Nc1ccccc1F)C(=O)N[C@@H](Cc1cnc[nH]1)C(=O)COc1c(F)c(F)cc(F)c1F (single isomer, unassigned) [Compound 135, trifluoroacetate]		EC50 (Severe acute respiratory syndrome coronavirus 2, HeLa-ACE2, 24 h): 0.5 to 1 µM
C[C@H](C[C@@H](O)C(=O)N1CC2(CC2)C[C@H]1C(=O)N[C@@H](C[C@@H]1CCNC1=O)C(=O)COC(F)(F)F)C(F)(F)F (single isomer, unassigned) [Compound 426]		EC50 [1]: < 0.05 µM
CC[C@@H](NC(=O)OC(C)(C)C)C(=O)N1C[C@H]2[C@@H]([C@H]1C(=O)N[C@@H](CC1CCNC1=O)C(=O)COC(F)(F)F)C2(C)C (stereo in doubt) [Compound 438, tert-butyl ((R)-1-((1R,2S,5S)-6,6-dimethyl-2-(((S)-3-oxo-1-((S)-2-oxopyrrolidin-3-yl)-4-(trifluoromethoxy)butan-2-yl)carbamoyl)-3-azabicyclo[3.1.0]-hexan-3-yl)-1-oxobutan-2-yl)carbamate]		EC50 [1]: < 0.05 µM
COc1cccc2[nH]c(C(=O)N[C@@H](CC(C)C)C(=O)N[C@@H](C[C@@H]3CCNC3=O)C(=O)COc3c(F)c(F)cc(F)c3F)cc12 [Compound 1, 4-methoxy-N-((S)-4-methyl-1-oxo-1-(((S)-3-oxo-1-((S)-2-oxopyrrolidin-3-yl)-4-(2,3,5,6-tetrafluorophenoxy)butan-2-yl)amino)pentan-2-yl)-1H-indole-2-carboxamide]	0.05 to 0.2 µM	
COc1cccc2[nH]c(C(=O)N[C@@H](CC(C)C)C(=O)N[C@@H](C[C@@H]3CCNC3=O)C(=O)COc3c(F)cccc3F)cc12 [Compound 2]		EC50 [3]: 0.5 to 1 µM
COc1cccc2[nH]c(C(=O)N[C@@H](CC(C)C)C(=O)N[C@@H](C[C@@H]3CCNC3=O)C(=O)COC(=O)c3c(Cl)cccc3Cl)cc12 [Compound 3, (S)-3-((S)-2-(4-methoxy-1H-indole-2-carboxamido)-4-methylpentanamido)-2-oxo-4-((S)-2-oxopyrrolidin-3-yl)butyl 2,6-dichlorobenzoate]		EC50 [3]: 0.2 to 0.5 µM
CC(C)C[C@H](NC(=O)c1cc2ccccc2[nH]1)C(=O)N[C@@H](C[C@@H]1CCNC1=O)C(=O)COc1c(F)c(F)cc(F)c1F [Compound 4, N-((S)-4-methyl-1-oxo-1-(((S)-3-oxo-1-((S)-2-oxopyrrolidin-3-yl)-4-(2,3,5,6-tetrafluorophenoxy)butan-2-yl)amino)pentan-2-yl)-1H-indole-2-carboxamide]	< 0.05 µM	
O=C(N[C@@H](CC1CCCCC1)C(=O)N[C@@H](C[C@@H]1CCNC1=O)C(=O)COc1c(F)c(F)cc(F)c1F)c1cc2ccccc2[nH]1 [Compound 5, N-((S)-3-cyclohexyl-1-oxo-1-(((S)-3-oxo-l-((S)-2-oxopyrrolidin-3-yl)-4-(2,3,5,6-tetrafluorophenoxy)butan-2-yl)amino)propan-2-yl)-1H-indole-2-carboxamide]	0.05 to 0.2 µM	
COc1cccc2[nH]c(C(=O)N[C@@H](CC(C)C)C(=O)N[C@@H](C[C@@H]3CCNC3=O)C(=O)COc3c(F)cccc3F)cc12 [Compound 7, N-((S)-1-(((S)-4-(2,6-difluorophenoxy)-3-oxo-1-((S)-2-oxopyrrolidin-3-yl)butan-2-yl)amino)-4-methyl-1-oxopentan-2-yl)-4-methoxy-1H-indole-2-carboxamide]		EC50 [3]: 0.2 to 0.5 µM
COc1cccc2[nH]c(C(=O)N[C@@H](CC(C)C)C(=O)N[C@@H](C[C@@H]3CCNC3=O)C(=O)COC(=O)c3c(Cl)cccc3Cl)cc12 [Compound 8, (S)-3-((S)-2-(4-methoxy-1H-indole-2-carboxamido)-4-methylpentanamido)-2-oxo-4-((S)-2-oxopyrrolidin-3-yl)butyl 2,6-dichlorobenzoate]		EC50 [3]: 0.05 to 0.2 µM
CC(C)C[C@H](NC(=O)c1ccccc1)C(=O)N[C@@H](C[C@@H]1CCNC1=O)C(=O)COc1c(F)c(F)cc(F)c1F [Compound 9, N-((S)-4-methyl-1-oxo-1-(((S)-3-oxo-1-((S)-2-oxopyrrolidin-3-yl)-4-(2,3,5,6-tetrafluorophenoxy)butan-2-yl)amino)pentan-2-yl)benzamide]	0.05 to 0.2 µM	
CC(C)C[C@H](NC(=O)C(=O)Nc1ccccc1)C(=O)N[C@@H](C[C@@H]1CCNC1=O)C(=O)COc1c(F)c(F)cc(F)c1F [Compound 10, N1-((S)-4-methyl-1-oxo-1-(((S)-3-oxo-1-((S)-2-oxopyrrolidin-3-yl)-4-(2,3,5,6-tetrafluorophenoxy)butan-2-yl)amino)pentan-2-yl)-N2-phenyloxalamide]	< 0.05 µM	
CC(C)CC[C@H](NC(=O)c1cc2cc(F)ccc2[nH]1)C(=O)N[C@@H](C[C@@H]1CCNC1=O)C(=O)COc1c(F)c(F)cc(F)c1F [Compound 11, 5-fluoro-N-((S)-5-methyl-1-oxo-1-(((S)-3-oxo-1-((S)-2-oxopyrrolidin-3-yl)-4-(2,3,5,6-tetrafluorophenoxy)butan-2-yl)amino)hexan-2-yl)-1H-indole-2-carboxamide]	0.2 to 0.5 µM	
O=C(N[C@@H](CCc1ccccc1)C(=O)N[C@@H](C[C@@H]1CCNC1=O)C(=O)COc1c(F)c(F)cc(F)c1F)c1cc2cc(F)ccc2[nH]1 [Compound 12, 5-fluoro-N-((S)-1-oxo-1-(((S)-3-oxo-1-((S)-2-oxopyrrolidin-3-yl)-4-(2,3,5,6-tetrafluorophenoxy)butan-2-yl)amino)-4-phenylbutan-2-yl)-1H-indole-2-carboxamide]	0.5 to 1 µM	
CC(C)(C)C[C@H](NC(=O)c1cc2cc(F)ccc2[nH]1)C(=O)N[C@@H](C[C@@H]1CCNC1=O)C(=O)COc1c(F)c(F)cc(F)c1F [Compound 13, N-((S)-4,4-dimethyl-1-oxo-1-(((S)-3-oxo-1-((S)-2-oxopyrrolidin-3-yl)-4-(2,3,5,6-tetrafluorophenoxy)butan-2-yl)amino)pentan-2-yl)-5-fluoro-1H-indole-2-carboxamide]	0.5 to 1 µM	
O=C(N[C@@H](Cc1ccccc1)C(=O)N[C@@H](C[C@@H]1CCNC1=O)C(=O)COc1c(F)c(F)cc(F)c1F)c1cc2cc(F)ccc2[nH]1 [Compound 14, 5-fluoro-N-((S)-1-oxo-1-(((S)-3-oxo-1-((S)-2-oxopyrrolidin-3-yl)-4-(2,3,5,6-tetrafluorophenoxy)butan-2-yl)amino)-3-phenylpropan-2-yl)-1H-indole-2-carboxamide]	0.05 to 0.2 µM	
CC(C)C[C@H](NC(=O)OCc1ccccc1)C(=O)N[C@@H](C[C@@H]1CCNC1=O)C(=O)COc1c(F)c(F)cc(F)c1F [Compound 15, benzyl ((S)-4-methyl-1-oxo-1-(((S)-3-oxo-1-((S)-2-oxopyrrolidin-3-yl)-4-(2,3,5,6-tetrafluorophenoxy)butan-2-yl)amino)pentan-2-yl)carbamate]	0.2 to 0.5 µM	
CC(C)C[C@H](NC(=O)c1cc2cc(F)ccc2[nH]1)C(=O)N[C@@H](C[C@@H]1CCNC1=O)C(=O)COc1c(F)c(F)cc(F)c1F [Compound 16, 5-fluoro-N-((S)-4-methyl-1-oxo-1-(((S)-3-oxo-1-((S)-2-oxopyrrolidin-3-yl)-4-(2,3,5,6-tetrafluorophenoxy)butan-2-yl)amino)pentan-2-yl)-1H-indole-2-carboxamide]	0.05 to 0.2 µM	
O=C(N[C@@H](Cc1ccc(C(F)(F)F)cc1)C(=O)N[C@@H](C[C@@H]1CCNC1=O)C(=O)COc1c(F)c(F)cc(F)c1F)c1cc2cc(F)ccc2[nH]1 [Compound 17, 5-fluoro-N-((S)-1-oxo-1-(((S)-3-oxo-1-((S)-2-oxopyrrolidin-3-yl)-4-(2,3,5,6-tetrafluorophenoxy)butan-2-yl)amino)-3-(4-(tri-fluoromethyl)phenyl)-propan-2-yl)-1H-indole-2-carboxamide]	0.2 to 0.5 µM	
CC(C)(F)C[C@H](NC(=O)c1cc2cc(F)ccc2[nH]1)C(=O)N[C@@H](C[C@@H]1CCNC1=O)C(=O)COc1c(F)c(F)cc(F)c1F [Compound 18, 5-fluoro-N-((S)-4-fluoro-4-methyl-1-oxo-1-(((S)-3-oxo-1-((S)-2-oxopyrrolidin-3-yl)-4-(2,3,5,6-tetrafluorophenoxy)butan-2-yl)amino)pentan-2-yl)-1H-indole-2-carboxamide]	0.5 to 1 µM	
COc1ccc(C[C@H](NC(=O)c2cc3cc(F)ccc3[nH]2)C(=O)N[C@@H](CC2CCNC2=O)C(=O)COc2c(F)c(F)cc(F)c2F)cc1 (stereo partly drawn) [Compound 19, 5-fluoro-N-((2S)-3-(4-methoxyphenyl)-1-oxo-1-(((2S)-3-oxo-1-(2-oxopyrrolidin-3-yl)-4-(2,3,5,6-tetrafluorophenoxy)butan-2-yl)amino)propan-2-yl)-1H-indole-2-carboxamide]	0.2 to 0.5 µM	
CC(C)C[C@H](NC(=O)c1ccc2ccccc2n1)C(=O)N[C@@H](C[C@@H]1CCNC1=O)C(=O)COc1c(F)c(F)cc(F)c1F [Compound 20, N-((S)-4-methyl-1-oxo-1-(((S)-3-oxo-1-((S)-2-oxopyrrolidin-3-yl)-4-(2,3,5,6-tetrafluorophenoxy)butan-2-yl)amino)pentan-2-yl)quinoline-2-carboxamide]	0.2 to 0.5 µM	
CC(C)C[C@H](NC(=O)OC1CCCC1)C(=O)N[C@@H](C[C@@H]1CCNC1=O)C(=O)COc1c(F)c(F)cc(F)c1F [Compound 21, cyclopentyl ((S)-4-methyl-1-oxo-1-(((S)-3-oxo-1-((S)-2-oxopyrrolidin-3-yl)-4-(2,3,5,6-tetrafluorophenoxy)butan-2-yl)amino)pentan-2-yl)carbamate]		EC50 (Severe acute respiratory syndrome coronavirus 2, HeLa-ACE2, 24 h, HeLa-ACE2 cells, SARS-CoV-2 infection, 24 h, cells given as a bound): > 1 µM
CC(C)C[C@H](NC(=O)OCc1cccc(Cl)c1)C(=O)N[C@@H](C[C@@H]1CCNC1=O)C(=O)COc1c(F)c(F)cc(F)c1F [Compound 22, 3-chlorobenzyl ((S)-4-methyl-1-oxo-1-(((S)-3-oxo-1-((S)-2-oxopyrrolidin-3-yl)-4-(2,3,5,6-tetrafluorophenoxy)butan-2-yl)amino)pentan-2-yl)carbamate]	0.2 to 0.5 µM	
